According to ChEMBL document CHEMBL5705898 (Proc Natl Acad Sci U S A, 2014):

Biological target: T1, Histone-lysine N-methyltransferase SETD7 (Homo sapiens, UniProt Q8WTS6)
T1 sequence (Q8WTS6 whole entry): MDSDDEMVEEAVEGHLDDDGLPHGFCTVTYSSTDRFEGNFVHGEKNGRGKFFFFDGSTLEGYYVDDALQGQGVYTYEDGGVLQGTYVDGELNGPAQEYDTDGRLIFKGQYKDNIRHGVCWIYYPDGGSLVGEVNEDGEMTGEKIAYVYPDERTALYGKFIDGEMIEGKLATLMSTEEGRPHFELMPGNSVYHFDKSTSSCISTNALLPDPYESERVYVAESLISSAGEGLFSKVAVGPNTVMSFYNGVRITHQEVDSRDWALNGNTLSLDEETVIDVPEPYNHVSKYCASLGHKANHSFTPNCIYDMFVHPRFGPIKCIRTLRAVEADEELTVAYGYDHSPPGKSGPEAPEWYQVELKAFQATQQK
Assay: Inhibition of wildtype full length human SETD7 (1 to 366 residues) expressed in Escherichia coli BL21 (DE3) V2R-pRARE using biotinylated H3 (1-25) peptide as substrate incubated for 1 hrs in presence of 3H-SAM by radioactivity based assay

In the case of O=C([C@H](Cc1cccc(C(F)(F)F)c1)NS(=O)(=O)c1cc(F)c2c(c1)CCNC2)N1CCCC1, the IC50 is reported as 1 µM.
